In PubChem BioAssay (NCI):
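96-well plates; 48 h exposure; 5 concentrations. Endpoints by linear interpolation between flanking doses. Not reached: highest tested concentration assigned. GI50 = concentration required for 50% inhibition of growth. TGI denotes the concentration required for complete inhibition of growth.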

How the values were obtained:
Experiment in all cases: NCI-60 cell line screen, 48 h
[1] = system: MDA-MB-435
[2] = system: HL-60(TB) leukemia
[3] = system: SK-MEL-2 melanoma
[4] = system: HCC-2998 colon
[5] = system: COLO 205 colon
[6] = system: M14 melanoma
[7] = system: OVCAR-8 ovarian
[8] = system: PC-3 prostate
[9] = system: OVCAR-5 ovarian
[10] = system: SK-OV-3 ovarian
[11] = system: CAKI-1 renal
[12] = system: U251 CNS
[13] = system: NCI-H23 lung
[14] = system: NCI-H522 lung
[15] = system: MALME-3M melanoma
[16] = system: T-47D breast
[17] = system: NCI-H460 lung
[18] = system: SK-MEL-5 melanoma
[19] = system: HS 578T breast
[20] = system: HOP-92 NSCLC
[21] = system: K-562 leukemia
[22] = system: MDA-MB-231 breast
[23] = system: SF-295 CNS
[24] = system: HCT-116 colon
[25] = system: SN12C renal
[26] = system: MOLT-4 leukemia
[27] = system: A549 NSCLC
[28] = system: OVCAR-3 ovarian
[29] = system: KM12 colon
[30] = system: HCT-15 colon
[31] = system: RXF 393 renal
[32] = system: NCI-H226 lung
[33] = system: CCRF-CEM leukemia
[34] = system: UACC-62 melanoma
[35] = system: A498 renal
[36] = system: DU-145 prostate
[37] = system: UACC-257 melanoma
[38] = system: NCI/ADR-RES ovarian
[39] = system: SK-MEL-28 melanoma
[40] = system: SF-539 CNS
[41] = system: HOP-62 NSCLC
[42] = system: 786-0 renal
[43] = system: OVCAR-4 ovarian
[44] = system: LOX IMVI melanoma
[45] = system: SNB-19 CNS
[46] = system: HT29 colon
[47] = system: RPMI-8226 leukemia
[48] = system: SW-620 colon
[49] = system: ACHN renal
[50] = system: SNB-75 CNS
[51] = system: IGROV1 ovarian
[52] = system: UO-31 renal
[53] = system: BT-549 breast
[54] = system: SF-268 CNS
[55] = system: TK-10 renal
[56] = system: SR leukemia
[57] = system: MCF7 breast

FC(F)(F)c1ccc(-c2ncc(-c3ccc(C(F)(F)F)cc3)c(NCc3cc(C(F)(F)F)cc(C(F)(F)F)c3)n2)cc1
GI50 [1]: 4.23 µM
TGI [1]: > 100 µM
GI50 [2]: 4.79 µM
TGI [2]: 36.2 µM
GI50 [3]: 2.84 µM
TGI [3]: 8.93 µM
GI50 [4]: 5.76 µM
TGI [4]: 46.7 µM
GI50 [5]: 2.34 µM
TGI [5]: 6.09 µM
GI50 [6]: 4.38 µM
TGI [6]: > 100 µM
GI50 [7]: 3.8 µM
TGI [7]: > 100 µM
GI50 [8]: 3.09 µM
TGI [8]: 18.3 µM
GI50 [9]: 6.02 µM
TGI [9]: > 100 µM
GI50 [10]: 7.03 µM
TGI [10]: 55.2 µM
GI50 [11]: 3.36 µM
TGI [11]: 28 µM
GI50 [12]: 3.57 µM
TGI [12]: > 100 µM
GI50 [13]: 3.24 µM
TGI [13]: 23.8 µM
GI50 [14]: 3.29 µM
TGI [14]: 22.6 µM
GI50 [15]: 6.44 µM
TGI [15]: 46.3 µM
GI50 [16]: 3.12 µM
TGI [16]: 29 µM
GI50 [17]: 3.72 µM
TGI [17]: 79.4 µM
GI50 [18]: 16.5 µM
TGI [18]: 41.8 µM
GI50 [19]: 2.83 µM
TGI [19]: 27.4 µM
GI50 [20]: 1.7 µM
TGI [20]: 5.05 µM
GI50 [21]: 3.97 µM
TGI [21]: > 100 µM
GI50 [22]: 3.81 µM
TGI [22]: 14.8 µM
GI50 [23]: 2.94 µM
TGI [23]: 28.3 µM
GI50 [24]: 3.84 µM
TGI [24]: > 100 µM
GI50 [25]: 3.65 µM
TGI [25]: > 100 µM
GI50 [26]: 4.35 µM
TGI [26]: 71.8 µM
GI50 [27]: 4.05 µM
TGI [27]: > 100 µM
GI50 [28]: 3.39 µM
TGI [28]: 16 µM
GI50 [29]: 4.3 µM
TGI [29]: 63.2 µM
GI50 [30]: 3.74 µM
TGI [30]: > 100 µM
GI50 [31]: 4.73 µM
TGI [31]: 74.9 µM
GI50 [32]: 3.76 µM
TGI [32]: 83.8 µM
GI50 [33]: 4.34 µM
TGI [33]: > 100 µM
GI50 [34]: 3.77 µM
TGI [34]: > 100 µM
GI50 [35]: 2.31 µM
TGI [35]: 8.75 µM
GI50 [36]: 5.25 µM
TGI [36]: > 100 µM
GI50 [37]: 5.29 µM
TGI [37]: 44.4 µM
GI50 [38]: 4.62 µM
TGI [38]: > 100 µM
GI50 [39]: 5.85 µM
TGI [39]: > 100 µM
GI50 [40]: 7.71 µM
TGI [40]: > 100 µM
GI50 [41]: 5.16 µM
TGI [41]: > 100 µM
GI50 [42]: 3.87 µM
TGI [42]: > 100 µM
GI50 [43]: 4.11 µM
TGI [43]: > 100 µM
GI50 [44]: 3.4 µM
TGI [44]: 26.2 µM
GI50 [45]: 3.49 µM
TGI [45]: > 100 µM
GI50 [46]: 6.95 µM
TGI [46]: > 100 µM
GI50 [47]: 4.24 µM
TGI [47]: 35.3 µM
GI50 [48]: 3.95 µM
TGI [48]: > 100 µM
GI50 [49]: 3.91 µM
TGI [49]: > 100 µM
GI50 [50]: 4.17 µM
TGI [50]: 73 µM
GI50 [51]: 9.02 µM
TGI [51]: > 100 µM
GI50 [52]: 2.94 µM
TGI [52]: 36.6 µM
GI50 [53]: 7.91 µM
TGI [53]: > 100 µM
GI50 [54]: 3.98 µM
TGI [54]: > 100 µM
GI50 [55]: 7.51 µM
TGI [55]: > 100 µM
GI50 [56]: 5.07 µM
TGI [56]: > 100 µM
GI50 [57]: 3.94 µM
TGI [57]: > 100 µM
